According to patent US20130225583A1, “SUBSTITUTED AMINO-TRIAZOLYL PDE10 INHIBITORS” (priority 2010, published 2013):

Molecular target: T1, human PDE10A2 (Homo sapiens, UniProt Q9Y233)
T1 construct: made in house; host or cells: AD293 cells, transiently transfected; The cytosolic supernatant of the lysate served as the enzyme
Experiment: PDE10 fluorescence polarization (IMAP FP) inhibition assay
Type: biochemical
Settings: apparent inhibition constant; FAM-labeled cAMP 50 nM; lysate of AD293 cells transfected with human PDE10A2; room temperature; read-out: PDE10a Ki
Protocol: The activity of the compounds in accordance with the present invention as PDE10 inhibitors may be readily determined without undue experimentation using a fluorescence polarization (FP) methodology that is well known in the art (Huang, W., et al., J. Biomol Screen, 2002, 7: 215).
In a typical experiment the PDE 10 inhibitory activity of the compounds of the present invention was determined in accordance with the following experimental method. PDE 10A2 was amplified from human fetal brain cDNA (Clontech, Mountain View, Calif.) using a forward primer corresponding to nucleotides 56-77 of human PDE10A2 (Accession No. AF127480, Genbank Identifier 4894716), containing a Kozak consensus sequence, and a reverse primer corresponding to nucleotides 2406-2413 of human PDE10A2 (Accession No. AF127480, Genbank Identifier 4894716). Amplification with Easy-A polymerase (Stratagene, La Jolla, Calif.) was 95° C. for 2 minutes followed by thirty three cycles of 95° C. for 40 seconds, 55° C. for 30 seconds, and 72° C. for 2 minutes 48 seconds. Final extension was 72° C. for 7 minutes. The PCR product was TA cloned into pcDNA3.2-TOPO (Invitrogen, Carlsbad, Calif.) according to standard protocol. AD293 cells with 70-80% confluency were transiently transfected with human PDE10A2/pcDNA3.2-TOPO using Lipofectamine 2000 according to manufacturer specifications (Invitrogen, Carlsbad, Calif.). Cells were harvested 48 hours post-transfection and lysed by sonication (setting 3, 10×5 sec pulses) in a buffer containing 20 mM HEPES, 1 mM EDTA and protease inhibitor cocktail (Roche). Lysate was collected by centrifugation at 75,000×g for 20 minutes. Supernatant containing the cytoplasmic fraction was used for evaluation of PDE10A2 activity. The fluorescence polarization assay for cyclic nucleotide phosphodiesterases was performed using an IMAP® FP kit supplied by Molecular Devices, Sunnyvale, Calif. (product # R8139). IMAP® technology has been applied previously to phosphodiesterase assays (Huang, W., et al., J. Biomol Screen, 2002, 7: 215). Assays were performed at room temperature in 384-well microtiter plates with an incubation volume of 20.2 μL. Solutions of test compounds were prepared in DMSO and serially diluted with DMSO to yield 8 μL of each of 10 solutions differing by 3-fold in concentration, at 32 serial dilutions per plate. 100% inhibition is determined using a known PDE 10 inhibitor, which can be any compound that is present at 5,000 times its Ki value in the assay described as follows, such as papaverine (see Siuciak, et al. Neuropharmacology (2006) 51:386-396; Becker, et al. Behav Brain Res (2008) 186(2):155-60; Threlfell, et al., J Pharmacol Exp Ther (2009) 328(3):785-795), 2-{4-[pyridin-4-yl-1-(2,2,2-trifluoroethyl)-1H-pyrazol-3-yl]phenoxymethyl}quinoline succinic acid or 2-[4-(1-methyl-4-pyridin-4-yl-1H-pyrazol-3-yl)-phenoxymethyl]quinoline succinic acid (see Schmidt, et al. J Pharmacol Exp Ther (2008) 325:681-690; Threlfell, et al., J Pharmacol Exp Ther (2009) 328(3): 785-795). 0% of inhibition is determined by using DMSO (1% final concentrations). A Labcyte Echo 555 (Labcyte, Sunnyvale, Calif.) is used to dispense 200 nL from each well of the titration plate to the 384 well assay plate. A solution of enzyme ( 1/7000 dilution from aliquots; sufficient to produce 20% substrate conversion) and a separate solution of FAM-labeled cAMP PDE from Molecular Devices (product # R7506), at a final concentration of 50 nM are made in the assay buffer (10 mM Tris HCl, pH 7.2, 10 mM MgCl2, 0.05% NaN3 0.01% Tween-20, and 1 mM DTT). The enzyme is added to the assay plates by the addition of 10 μL of enzyme solution to each well, shaken to mix and incubated at room temperature for 60 minutes. The substrate is then added to the assay plates by the addition of 10 μL of substrate solution to each well, shaken to mix, and incubated at room temperature for 60 minutes. […]

T1 sequence (Q9Y233 267-1055): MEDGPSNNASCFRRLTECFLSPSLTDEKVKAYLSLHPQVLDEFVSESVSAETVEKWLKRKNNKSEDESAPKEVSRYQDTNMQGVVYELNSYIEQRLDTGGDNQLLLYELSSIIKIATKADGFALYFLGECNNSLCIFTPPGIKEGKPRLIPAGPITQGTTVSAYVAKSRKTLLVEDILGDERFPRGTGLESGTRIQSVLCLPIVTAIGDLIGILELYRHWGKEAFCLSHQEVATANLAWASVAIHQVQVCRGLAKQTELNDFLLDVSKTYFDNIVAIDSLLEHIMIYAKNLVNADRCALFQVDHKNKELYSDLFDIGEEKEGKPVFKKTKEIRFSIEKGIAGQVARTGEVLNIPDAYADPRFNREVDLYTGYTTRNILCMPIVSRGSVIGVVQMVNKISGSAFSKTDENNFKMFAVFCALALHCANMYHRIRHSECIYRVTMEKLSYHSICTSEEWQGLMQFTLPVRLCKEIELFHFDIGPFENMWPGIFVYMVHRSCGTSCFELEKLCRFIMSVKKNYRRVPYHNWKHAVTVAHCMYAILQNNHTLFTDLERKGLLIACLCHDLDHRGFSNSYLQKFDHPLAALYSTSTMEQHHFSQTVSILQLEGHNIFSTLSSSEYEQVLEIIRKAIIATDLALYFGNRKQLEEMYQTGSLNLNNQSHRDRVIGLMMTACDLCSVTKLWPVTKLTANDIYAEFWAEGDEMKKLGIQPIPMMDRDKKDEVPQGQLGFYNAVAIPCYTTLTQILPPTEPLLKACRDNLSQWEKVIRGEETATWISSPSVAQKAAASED

| Ki [nM] | SMILES |
| --- | --- |
| 220 | COc1ccc(Cc2nc(N)nn2-c2cc(=O)n(CC3(c4ccccc4)CC3(F)F)cn2)cc1OC (stereo not shown) [1-59, 6-(3-amino-5-(3,4-dimethoxybenzyl)-1H-1,2,4-triazol-1-yl)-3-((2,2-difluoro-1-phenylcyclopropyl)methyl)pyrimidin-4(3H)-one] |
| 370 | COc1ccc(Cc2nc(N)nn2-c2cc(OC(C)C)ncn2)cc1OC [1-60, 5-(3,4-dimethoxybenzyl)-1-(6-isopropoxypyrimidin-4-yl)-1H-1,2,4-triazol-3-amine] |
| 19 | COc1ccc(Cc2nc(N)nn2-c2cc(OC3CCCCC3)ncn2)cc1OC [1-61, 1-(6-(cyclohexyloxy)pyrimidin-4-yl)-5-(3,4-dimethoxybenzyl)-1H-1,2,4-triazol-3-amine] |
| 8.6 | COc1ccc(Cc2nc(N)nn2-c2cc(OCC3CCC3)ncn2)cc1OC [1-62, 1-(6-(cyclobutylmethoxy)pyrimidin-4-yl)-5-(3,4-dimethoxybenzyl)-1H-1,2,4-triazol-3-amine] |
| 35 | CCCOc1cc(-n2nc(N)nc2Cc2ccc(OC)c(OC)c2)ncn1 [1-63, 5-(3,4-dimethoxybenzyl)-1-(6-propoxypyrimidin-4-yl)-1H-1,2,4-triazol-3-amine] |
| 13 | COc1ccc(Cc2nc(N)nn2-c2cc(OCC(C)(C)C)ncn2)cc1OC [1-64, 5-(3,4-dimethoxybenzyl)-1-(6-(neopentyloxy)pyrimidin-4-yl)-1H-1,2,4-triazol-3-amine] |
| 320 | COc1ccc(Cc2nc(N)nn2-c2cc(OCC3CC3c3ccccc3)ncn2)cc1OC (stereo not shown) [1-67, 5-(3,4-dimethoxybenzyl)-1-(6-((2-phenylcyclopropyl)methoxy)pyrimidin-4-yl)-1H-1,2,4-triazol-3-amine] |
| 760 | COc1ccc(Cc2nc(N)nn2-c2cc(OCc3ccc4ccccc4n3)ncn2)cc1OC [1-68, 5-(3,4-dimethoxybenzyl)-1-(6-(quinolin-2-ylmethoxy)pyrimidin-4-yl)-1H-1,2,4-triazol-3-amine] |
| 540 | COc1ccc(Cc2nc(N)nn2-c2cc(=O)n(C(C)C)cn2)cc1OC [1-69, 6-(3-amino-5-(3,4-dimethoxybenzyl)-1H-1,2,4-triazol-1-yl)-3-isopropylpyrimidin-4(3H)-one] |
| 640 | COc1ccc(Cc2nc(N)nn2-c2cc(=O)n(CC3CCC3)cn2)cc1OC [1-70, 6-(3-amino-5-(3,4-dimethoxybenzyl)-1H-1,2,4-triazol-1-yl)-3-(cyclobutylmethyl)pyrimidin-4(3H)-one] |
| 620 | CCCn1cnc(-n2nc(N)nc2Cc2ccc(OC)c(OC)c2)cc1=O [1-71, 6-(3-amino-5-(3,4-dimethoxybenzyl)-1H-1,2,4-triazol-1-yl)-3-propylpyrimidin-4(3H)-one] |
| < 3.8 | COc1ccc(Cc2nc(N)nn2-c2cc(=O)n(Cc3nc4ccccc4s3)cn2)cc1OC [1-73, 6-(3-amino-5-(3,4-dimethoxybenzyl)-1H-1,2,4-triazol-1-yl)-3-(benzo[d]thiazol-2-ylmethyl)pyrimidin-4(3H)-one] |
| 64 | COc1ccc(Cc2nc(N)nn2-c2cc(=O)n(Cc3ccc4ccccc4n3)cn2)cc1OC [1-75, 6-(3-amino-5-(3,4-dimethoxybenzyl)-1H-1,2,4-triazol-1-yl)-3-(quinolin-2-ylmethyl)pyrimidin-4(3H)-one] |
| < 3.8 | COc1ccc(CNc2nc(Cc3ccc(OC)c(OC)c3)n(-c3cc(Oc4ccccn4)nc(C)n3)n2)cc1 [1-76, 5-(3,4-dimethoxybenzyl)-N-(4-methoxybenzyl)-1-(2-methyl-6-(pyridin-2-yloxy)pyrimidin-4-yl)-1H 1,2,4-triazol-3-amine] |
| 1000 | COc1ccc(CNc2nc(Cc3ccc(OC)c(OC)c3)n(-c3cc(Oc4cccnc4)nc(C)n3)n2)cc1 [1-77, 5-(3,4-dimethoxybenzyl)-N-(4-methoxybenzyl)-1-(2-methyl-6-(pyridin-3-yloxy)pyrimidin-4-yl)-1H-1,2,4-triazol-3-amine] |
| 130 | COc1ccc(Cc2nc(N)nn2-c2cc(Oc3cccnc3)nc(C)n2)cc1OC [1-79, 5-(3,4-dimethoxybenzyl)-1-(2-methyl-6-(pyridin-3-yloxy)pyrimidin-4-yl)-1H-1,2,4-triazol-3-amine] |
| 490 | COc1ccc(CNc2nc(Cc3ccc(OC)c(OC)c3)n(-c3cc(Oc4ccccn4)nc(C)n3)n2)cc1 [1-80, 5-(3,4-dimethoxybenzyl)-N-(4-methoxybenzyl)-1-(2-methyl-6-(pyridin-2-yloxy)pyrimidin-4-yl)-1H-1,2,4-triazol-3-amine] |
| 47 | COc1ccc(Cc2nc(N)nn2-c2cc(Oc3ccc4ccccc4n3)nc(C)n2)cc1OC [1-83, 3-amino-5-(3,4-dimethoxybenzyl)-1-(2-methyl-6-(quinolin-2-yloxy)pyrimidin-4-yl)-1H-1,2,4-triazole-2,4-diium] |
| 19 | COc1ccc(CNc2nc(Cc3ccc(OC)c(OC)c3)n(-c3cc(C#Cc4ccccn4)nc(C)n3)n2)cc1 [1-84, 5-(3,4-dimethoxybenzyl)-N-(4-methoxybenzyl)-1-(2-methyl-6-(pyridin-2-ylethynyl)pyrimidin-4-yl)-1H-1,2,4-triazol-3-amine] |
